Source: patent US12545637B2, “Extrahepatic targeted cationic lipid compound with high efficiency and low toxicity and its composition” (BEIJING YOUCARE KECHUANG PHARMACEUTICAL TECHNOLOGY CO., LTD., priority 2023, dated 2026)
Where “and” joins values, the source holds several entries; their conditions need not be identical. Identical values can stand only once.

Key:
[1] = Particle size and polydispersity index (PDI) of lipid nanoparticles by dynamic light scattering; format: physicochemical; settings: for PDI: LNP formulation of the cationic lipid, 25° C.; for Particle size: LNP formulation of the cationic lipid/DSPC/cholesterol/DMG-PEG2000 49:10:39.5:1.5, 25° C.
Protocol: The particle size and polydispersity index (PDI) were determined by dynamic light scattering using Malvern laser particle size analyzer.
10 μL of the liposome solution was weighed, diluted to 1 mL with RNase-free deionized water, and added to the sample pool. Each sample was measured in triplicate. The measurement conditions were: […] scattering angle, and 25° C.

293T cells = assay: Cell survival rate assay (CCK-8); format: cell-based; settings: for Cell survival rate: LNP with 1.5 μg Fluc-mRNA, 24 hours, CCK-8; for cell survival rate higher than ALC-0315: difference vs ALC-0315; for cell survival rate higher than HIMA: difference vs HIMA (HHMA); for cell survival rate higher than Lipofectamine 3000: difference vs Lipofectamine 3000; for cell survival rate higher than SM-102: difference vs SM-102; for cell survival rate higher than YK-404: difference vs YK-404; for cell survival rate higher than YK-405: difference vs YK-405; for cell survival rate higher than YK-406: difference vs YK-406; for cell survival rate higher than YK-408: difference vs YK-408; for cell survival rate higher than YK-409: difference vs YK-409; for cell survival rate higher than YK-410: difference vs YK-410; for cell survival rate higher than YK-411: difference vs YK-411; for cell survival rate higher than YK-412: difference vs YK-412; for cell survival rate higher than YK-413: difference vs YK-413; for cell survival rate higher than YK-414: difference vs YK-414; for cell survival rate higher than YK-415: difference vs YK-415; for cell survival rate higher than YK-416: difference vs YK-416; for cell survival rate higher than YK-417: difference vs YK-417; for cell survival rate higher than YK-418: difference vs YK-418; for cell survival rate higher than YK-419: difference vs YK-419; for cell survival rate higher than YK-420: difference vs YK-420; for cell survival rate higher than YK-421: difference vs YK-421; for cell survival rate higher than YK-424: difference vs YK-424; for cell survival rate higher than compound 21: difference vs compound 21; for cell survival rate higher than compound 23: difference vs compound 23; for cytotoxicity reduced compared with YK-411: rounded summary statement vs YK-411
How it was run: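 293T cells seeded at 10,000 cells/well, cultured overnight, then exposed 24 h to LNP carrying 1.5 μg Fluc-mRNA (cationic:neutral:structured:PEG-type lipid 49:10:39.5:1.5) or Lipofectamine 3000. Viability read by CCK-8, 1 h incubation, absorbance at 450 nm.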

female BALB/C mice = assay: In vivo imaging in mice of Fluc-mRNA LNP formulations (mRNA expression and duration); settings: for average radiation intensity, 6 h / average radiation intensity, 24 h / average radiation intensity, 48 h / average radiation intensity, 7 d: Fluc-mRNA LNP intramuscular; for average radiation intensity, 6 h: 6 h after administration; for average radiation intensity, 24 h: 24 h after administration; for average radiation intensity, 48 h: 48 h after administration; for average radiation intensity, 7 d: 7 d after administration
How it was run: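 Female BALB/C mice (4-6 weeks, 17-19 g) received LNP carrying […] Fluc-mRNA intramuscularly. At 6h, 24 h, 48h and 7d, fluorescent imaging substrate was given intraperitoneally and after 5 minutes average radiance, as a measure of expressed protein, was imaged on an IVIS Spectrum system.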

CCCCCCCCC(CCCCCCCC)OC(=O)CCCCCN(CCO)CCN(CCO)CCCCCC(=O)OC(CCCCCCCC)CCCCCCCC [YK-401, di(heptadecan-9-yl) 6,6′-(ethane-1,2-diyl-bis((2-hydroxyethyl)azanediyl))dihexanoate]
PDI [1]: 17.7%
Particle size [1]: 152 nm
Cell survival rate (293T cells): 75.21%
cell survival rate higher than ALC-0315 (293T cells): 28.00%
cell survival rate higher than HIMA (293T cells): 10.94%
cell survival rate higher than Lipofectamine 3000 (293T cells): 53.55%
cell survival rate higher than SM-102 (293T cells): 4.31% and 7.31%
cell survival rate higher than YK-404 (293T cells): 33.09%
cell survival rate higher than YK-405 (293T cells): 33.35%
cell survival rate higher than YK-406 (293T cells): 50.25%
cell survival rate higher than YK-408 (293T cells): 32.90%
cell survival rate higher than YK-409 (293T cells): 29.10%
cell survival rate higher than YK-410 (293T cells): 30.29%
cell survival rate higher than YK-411 (293T cells): 58.88%
cell survival rate higher than YK-412 (293T cells): 21.07%
cell survival rate higher than YK-413 (293T cells): 28.01%
cell survival rate higher than YK-414 (293T cells): 46.46%
cell survival rate higher than YK-415 (293T cells): 14.05%
cell survival rate higher than YK-416 (293T cells): 34.24%
cell survival rate higher than YK-417 (293T cells): 53.87%
cell survival rate higher than YK-418 (293T cells): 54.16%
cell survival rate higher than YK-419 (293T cells): 36.29%
cell survival rate higher than YK-420 (293T cells): 39.62%
cell survival rate higher than YK-421 (293T cells): 39.50%
cell survival rate higher than YK-424 (293T cells): 47.28%
cell survival rate higher than compound 21 (293T cells): 7.37%
cell survival rate higher than compound 23 (293T cells): 6.10%
cytotoxicity reduced compared with YK-411 (293T cells): 50%
average radiation intensity, times that of ALC-0315 (female BALB/C mice; 6 h): 1.85
average radiation intensity, times that of HHMA (female BALB/C mice; 6 h): 2.36
average radiation intensity, times that of SM-102 (female BALB/C mice; 6 h): 2.25
average radiation intensity, times that of compound 21 (female BALB/C mice; 6 h): 2.59
average radiation intensity, times that of compound 23 (female BALB/C mice; 6 h): 2.68
expression amount in mice, times that of YK-415 (female BALB/C mice; 6 h): 13.22
expression amount in mice, times that of YK-417 (female BALB/C mice; 6 h): 25.75
mRNA expression in mice, times that of YK-411 (female BALB/C mice; 6 h): 266.26
average radiation intensity, times that of ALC-0315 (female BALB/C mice; 24 h): 4.25
average radiation intensity, times that of HHMA (female BALB/C mice; 24 h): 6.72
average radiation intensity, times that of SM-102 (female BALB/C mice; 24 h): 6.53
average radiation intensity, times that of compound 21 (female BALB/C mice; 24 h): 7.26
average radiation intensity, times that of compound 23 (female BALB/C mice; 24 h): 7.98
expression amount in mice, times that of YK-415 (female BALB/C mice; 24 h): 12.50
expression amount in mice, times that of YK-417 (female BALB/C mice; 24 h): 40.34
mRNA expression in mice, times that of YK-411 (female BALB/C mice; 24 h): 398.73
average radiation intensity, times that of ALC-0315 (female BALB/C mice; 48 h): 9.79
average radiation intensity, times that of HHMA (female BALB/C mice; 48 h): 11.79
average radiation intensity, times that of SM-102 (female BALB/C mice; 48 h): 11.96
average radiation intensity, times that of compound 21 (female BALB/C mice; 48 h): 12.46
average radiation intensity, times that of compound 23 (female BALB/C mice; 48 h): 11.94
expression amount in mice, times that of YK-415 (female BALB/C mice; 48 h): 24.89
expression amount in mice, times that of YK-417 (female BALB/C mice; 48 h): 55.79
mRNA expression in mice, times that of YK-411 (female BALB/C mice; 48 h): 403.10
average radiation intensity, times that of ALC-0315 (female BALB/C mice; 7 d): 1.50
average radiation intensity, times that of HHMA (female BALB/C mice; 7 d): 1.76
average radiation intensity, times that of SM-102 (female BALB/C mice; 7 d): 1.56
average radiation intensity, times that of compound 21 (female BALB/C mice; 7 d): 1.65
average radiation intensity, times that of compound 23 (female BALB/C mice; 7 d): 1.72
expression amount in mice, times that of YK-415 (female BALB/C mice; 7 d): 2.60
expression amount in mice, times that of YK-417 (female BALB/C mice; 7 d): 4.60
mRNA expression in mice, times that of YK-411 (female BALB/C mice; 7 d): 21.90
average radiation intensity, 6 h (female BALB/C mice): 1557640
average radiation intensity, 24 h (female BALB/C mice): 806240
average radiation intensity, 48 h (female BALB/C mice): 393020
average radiation intensity, 7 d (female BALB/C mice): 10512

CCCCCCCCC(CCCCCCCC)COC(=O)CCCCCN(CCCO)CCN(CCCO)CCCCCC(=O)OCC(CCCCCCCC)CCCCCCCC [YK-422, di(2-octyldecyl) 6,6′-(ethane-1,2-diyl-bis((3-hydroxypropyl)azanediyl))dihexanoate]
PDI [1]: 13.9%
Particle size [1]: 146 nm
Cell survival rate (293T cells): 70.48%
cell survival rate higher than ALC-0315 (293T cells): 23.27%
cell survival rate higher than HIMA (293T cells): 6.21%
cell survival rate higher than Lipofectamine 3000 (293T cells): 48.82%
cell survival rate higher than SM-102 (293T cells): 2.58%
cell survival rate higher than YK-404 (293T cells): 28.36%
cell survival rate higher than YK-405 (293T cells): 28.62%
cell survival rate higher than YK-406 (293T cells): 45.52%
cell survival rate higher than YK-408 (293T cells): 28.17%
cell survival rate higher than YK-409 (293T cells): 24.37%
cell survival rate higher than YK-410 (293T cells): 25.56%
cell survival rate higher than YK-411 (293T cells): 54.15%
cell survival rate higher than YK-412 (293T cells): 16.34%
cell survival rate higher than YK-413 (293T cells): 23.28%
cell survival rate higher than YK-414 (293T cells): 41.73%
cell survival rate higher than YK-415 (293T cells): 9.32%
cell survival rate higher than YK-416 (293T cells): 29.51%
cell survival rate higher than YK-417 (293T cells): 49.14%
cell survival rate higher than YK-418 (293T cells): 49.43%
cell survival rate higher than YK-419 (293T cells): 31.56%
cell survival rate higher than YK-420 (293T cells): 34.89%
cell survival rate higher than YK-421 (293T cells): 34.77%
cell survival rate higher than YK-424 (293T cells): 42.55%
cell survival rate higher than compound 21 (293T cells): 2.64%
cell survival rate higher than compound 23 (293T cells): 1.37%
cytotoxicity reduced compared with YK-411 (293T cells): 50%
average radiation intensity, times that of ALC-0315 (female BALB/C mice; 6 h): 1.58
average radiation intensity, times that of HHMA (female BALB/C mice; 6 h): 2.01
average radiation intensity, times that of SM-102 (female BALB/C mice; 6 h): 1.92
average radiation intensity, times that of compound 21 (female BALB/C mice; 6 h): 2.21
average radiation intensity, times that of compound 23 (female BALB/C mice; 6 h): 2.29
expression amount in mice, times that of YK-415 (female BALB/C mice; 6 h): 11.28
expression amount in mice, times that of YK-417 (female BALB/C mice; 6 h): 21.98
mRNA expression in mice, times that of YK-411 (female BALB/C mice; 6 h): 227.25
average radiation intensity, times that of ALC-0315 (female BALB/C mice; 24 h): 3.73
average radiation intensity, times that of HHMA (female BALB/C mice; 24 h): 5.90
average radiation intensity, times that of SM-102 (female BALB/C mice; 24 h): 5.74
average radiation intensity, times that of compound 21 (female BALB/C mice; 24 h): 6.38
average radiation intensity, times that of compound 23 (female BALB/C mice; 24 h): 7.01
expression amount in mice, times that of YK-415 (female BALB/C mice; 24 h): 10.98
expression amount in mice, times that of YK-417 (female BALB/C mice; 24 h): 35.43
mRNA expression in mice, times that of YK-411 (female BALB/C mice; 24 h): 350.21
average radiation intensity, times that of ALC-0315 (female BALB/C mice; 48 h): 6.76
average radiation intensity, times that of HHMA (female BALB/C mice; 48 h): 8.14
average radiation intensity, times that of SM-102 (female BALB/C mice; 48 h): 8.26
average radiation intensity, times that of compound 21 (female BALB/C mice; 48 h): 8.60
average radiation intensity, times that of compound 23 (female BALB/C mice; 48 h): 8.24
expression amount in mice, times that of YK-415 (female BALB/C mice; 48 h): 17.19
expression amount in mice, times that of YK-417 (female BALB/C mice; 48 h): 38.52
mRNA expression in mice, times that of YK-411 (female BALB/C mice; 48 h): 278.33
average radiation intensity, times that of ALC-0315 (female BALB/C mice; 7 d): 1.35
average radiation intensity, times that of HHMA (female BALB/C mice; 7 d): 1.59
average radiation intensity, times that of SM-102 (female BALB/C mice; 7 d): 1.41
average radiation intensity, times that of compound 21 (female BALB/C mice; 7 d): 1.49
average radiation intensity, times that of compound 23 (female BALB/C mice; 7 d): 1.55
expression amount in mice, times that of YK-415 (female BALB/C mice; 7 d): 2.34
expression amount in mice, times that of YK-417 (female BALB/C mice; 7 d): 4.15
mRNA expression in mice, times that of YK-411 (female BALB/C mice; 7 d): 19.74
average radiation intensity, 6 h (female BALB/C mice): 1329410
average radiation intensity, 24 h (female BALB/C mice): 708120
average radiation intensity, 48 h (female BALB/C mice): 271372
average radiation intensity, 7 d (female BALB/C mice): 9476
